Values of other authors as cited in patent US20170296470A1, “TWO SPEED MONOLOTHIC SYSTEM FOR CONTROLLED RELEASE OF DRUGS” (Matripharm Inc., priority 2011, published 2017).

Conditions: for numbers needed to harm: one out of N patients likely to suffer a first-time heart attack: patients in the age group of 65 and over; for risk of heart attack increased: patients prescribed the NSAID vs those who had not taken these drugs in the previous three years

numbers needed to harm: one out of N patients likely to suffer a first-time heart attack [patients]	risk of heart attack increased [%]	Structure (SMILES)
521	55	O=C(O)Cc1ccccc1Nc1c(Cl)cccc1Cl [diclofenac]
1005	24	CC(C)Cc1ccc(C(C)C(=O)O)cc1 (centres unmarked) [ibuprofen]
695		CS(=O)(=O)c1ccc(C2=C(c3ccccc3)C(=O)OC2)cc1 [rofecoxib]
